Test results reported in patent US20220151887A1 (AQUA BANK CO.,LTD., priority 2019, published 2022).

Assays:
[1] = Description: (§1) The selection criteria were good health and no smoking. The subjects were allowed to sit in a sitting position for 30 minutes after entering a test room set at a room temperature of 24° C. and a relative humidity of 50% to acclimatize to the experimental environment. After acclimation, physiological measurements were conducted. As the physiological measurements, skin temperature measurements were performed.
<<Evaluation of Pupil Contraction Rate in Pupil Reaction to Light by Measuring Pupil Reaction to Light (Single Time Evaluation Test (FIG. 6))>>
After confirming that the pupil dilatation was stable, light stimulation was given for 0.1 seconds. […] The pupil contraction rate (CR), which is the rate of pupil contraction, was determined by the following expression:
Note that the pupil rapidly dilates after it contracts, and the pupil expanding speed (vd) at that time reflects the state of sympathetic nervous activity. The predominance of sympathetic nervous activity and parasympathetic nervous activity in autonomous nervous activity was determined by analysis of changes in pupil diameter.

[2] = remark: listed apart in the source
Description: as §1
<<Evaluation of Sympathetic Nervous Activity by Measuring Skin Temperature ((Single Time Evaluation Test (FIG. 7))>>
Since many of the peripheral blood vessel networks are controlled by sympathetic nervous activity, the predominance or inferiority of sympathetic nervous activity can be evaluated by measuring changes in blood flow in the peripheral site or changes in skin temperature in the peripheral site. Therefore, in this verification, the change in skin temperature was used as the index. In other words, changes in the skin temperatures (at the center of the forehead and the first segment pad of the index finger) of the peripheral site were measured by a temperature sensor (manufactured by Gram Corporation). The increased skin temperature in the test product is determined by the following expression:
where H1 is the temperature of the forehead center part of the control, F1 is the temperature of the finger pad center part of the control, H2 is the temperature of the forehead center part of the sample, and F2 is the temperature of the finger pad center part of the sample.
Note that, in the measurement data analysis in the physiological evaluation, the difference between the control and the blank and the difference between the test product and the blank were compared using the t-test. The significance level of the t-test was set to less than 5%.

[3] = hydrogen continuous use period 2 weeks, cheek, not significant vs non-continuous use period
Description: (§2) During the test period, each subject was required to perform the same skin care method as they do on a daily basis, and not to add or change cosmetics or supplements.
In other words, the subjects were divided into two groups, Group A and Group B each having 11 subjects. […] Skin physiological measurements were conducted at the start of the test (zero week), the second and fourth weeks (actually, the subjects also answered questionnaires of the 30 items of the stress checklist and the multifaceted emotion scale for verification of influences on stress, which is a factor of increased skin metabolism, as is omitted here). […]
(§3) The skin physiological measurements include: the stratum corneum water content; transepidermal water loss; skin viscoelasticity; skin color; facial image analysis by photographing with a digital imaging device (VSIA); and skin blood flow measurement with a non-contact blood flow meter. […] In the measurements listed below, the cheek site, which was the measurement site, was measured after 15 minutes of acclimation in a constant temperature and humidity chamber (temperature 20±2° C., humidity 50±10%) after the face washing. What was measured in each measurement are described below.
The degree of skin moisturization was determined by measuring the stratum corneum water content. […]

[4] = remark: listed apart in the source
Description: as §2
(§4) In other words, the subjects were divided into two groups, Group A and Group B each having 11 subjects. […] Skin physiological measurements were conducted at the start of the test (zero week), the second and fourth weeks (actually, the subjects also answered questionnaires of the 30 items of the stress checklist and the multifaceted emotion scale for verification of influences on stress, which is a factor of increased skin metabolism, as is omitted here). The measurement items include: the stratum corneum water content; transepidermal water loss; skin viscoelasticity; skin color; facial image analysis by photographing with a digital imaging device (VSIA); and skin blood flow measurement with a non-contact blood flow meter.
(§5) The subjects executed the inhalation for five minutes each time in the morning and evening and approximately 1 hour after each meal, as in the single time test, with the goal of using five times a day.
The skin physiological measurements include: the stratum corneum water content; transepidermal water loss; skin viscoelasticity; skin color; facial image analysis by photographing with a digital imaging device (VSIA); and skin blood flow measurement with a non-contact blood flow meter. […] In the measurements listed below, the cheek site, which was the measurement site, was measured after 15 minutes of acclimation in a constant temperature and humidity chamber (temperature 20±2° C., humidity 50±10%) after the face washing. What was measured in each measurement are described below. […]
(§6) The p-value was calculated as the probability to determine whether there was a statistically significant difference in the difference average values of the respective groups, and the effect size was calculated as an index representing the magnitude of the difference between the difference average values, so that the two groups are compared with each other.

[5] = hydrogen continuous use period 2 weeks, difference not significant
Description: as §2, §4, §5, §3
The measurements were performed at zero, second and fourth weeks.

[6] = remark: listed apart in the source
Description: as §2, §4, §5, §3
Skin images of the measurement site were photographed using VISIA (registered trademark) Evolution (Canfield Imaging Systems), and each skin property was analyzed. The software attached to the device was used to measure the scores of pores, spots, wrinkles, texture, redness, porphyrin, and brown spots. The measurements were performed at zero, second and fourth weeks.
as §6

[7] = hydrogen continuous use period vs non-continuous use period
[8] = hydrogen continuous use period vs nonuse period

[HH] [hydrogen]
pupil expanding speed (vd) ([1]; after hydrogen inhalation (not shown)): almost unchanged
pupil contraction rate in the pupil reaction to light ([1]; after hydrogen inhalation for 1, 3, 5, 7 and 9 minutes (FIG. 6)): increased significantly in a time-dependent manner
pupil contraction rate CR ([1]; after hydrogen inhalation, especially 5 minutes or more, vs before inhalation, p<0.001): significantly increased
skin temperature of the index finger, average increase ([2]; hydrogen inhalation for 5 minutes vs control, 17 subjects, p<0.001): 3.6 °C
skin temperature of the forehead, change ([2]; hydrogen inhalation for 5 minutes vs spontaneous breathing control): hardly found to change
skin temperature of the index finger, increase in individual subjects ([2]; hydrogen inhalation for 5 minutes, some subjects): ≥ 6 °C
skin (stratum corneum) water content, difference average value ([3]; 5 min about five times a day): +34.9 μS
transepidermal water loss, difference average value [3]: +34.9
instantaneous skin return rate R7 (Ur/Uf), difference average value ([4]; hydrogen continuous use period 2 weeks, cheek, p 0.028 vs nonuse period): 0.01
R7 (Ur/Uf) effect size ([4]; hydrogen continuous use period vs hydrogen nonuse period): 0.74
skin return rate R2, difference average value ([4]; hydrogen use period 2 weeks, cheek, p 0.076 vs nonuse period): 0.01
skin color ΔL* (black and white degree), difference average value ([5]; cheek): +0.30
skin color Δa* (redness degree), difference average value ([5]; cheek): −0.23
skin color Δb* (yellowness degree), difference average value ([5]; cheek): −0.20
skin blood flow changes, difference average value ([5]; entire face): −0.20
number of porphyrins, difference average value ([6]; hydrogen continuous use period 2 weeks, difference not significant): −103.05
number of spots, difference average value ([6]; hydrogen continuous use period 2 weeks, p 0.0012 vs nonuse period): −1.8
redness of the skin color, difference average value ([6]; hydrogen continuous use period 2 weeks, p 0.042 vs non-continuous use period): −5.1
number of brown spots, difference average value ([6]; hydrogen continuous use period 2 weeks, p 0.046 vs nonuse period): −13.7
VISIA pores, measured values [6, 7]: no difference
VISIA texture, measured values [6, 7]: no difference
VISIA wrinkles, measured values [6, 7]: no difference
redness, effect size [6, 7]: 0.65
number of brown spots, effect size [6, 8]: 0.68
number of spots, effect size [6, 8]: 0.86
